# Experimental data reported in patent US11304927B2, “Bioactive extract, fraction of Cassia occidentalis and formulation thereof for bone regeneration” (COUNCIL OF SCIENTIFIC AND INDUSTRIAL RESEARCH, priority 2018, dated 2022).
# Experiments:
# [1] = tested on: Rat calvarial osteoblasts (RCO); test: Alkaline phosphatase (ALP) assay, osteoblast differentiation; type: cell-based; details: 48 h, ALP activity
# Experimental: Calvaria from ten to twelve 1-2 day old rat pups were harvested, cleaned, and subjected to five sequential enzymatic digestions (0.1% diaspase and 0.1% collagenase I) of 10-15 min each. Cells from second to fifth digestion were collected, centrifuged, re-suspended and cultured in α-MEM containing 10% fetal bovine serum (FBS) and 1% penicillin/streptomycin (complete growth medium).
# For ALP assay, RCO were trypsinized at 80% confluence and 2×10^3 cells/well were seeded onto 24-well plates. Cells were treated with different compounds isolated from extract & vehicle for 48 h in α-MEM supplemented with 10 mM β-glycerophosphate, […] and 1% penicillin/streptomycin (osteoblast differentiation medium).
# At the end of the experiment, cells were washed with PBS, freeze fractured by placing the plates at −70° C. for 15 minutes followed by bringing to room temperature. ALP activity was measured by adding 100 µl p-nitrophenylphosphate buffer (2 mg/ml pNPP and 0.25 mM MgCl2 in 1 M diethanolamine). The absorption was measured at 405 nm with a microplate reader.
# [2] = tested on: Runx2 mRNA; test: qPCR osteogenic gene expression in rat calvarial osteoblast; type: cell-based; details: mRNA by qPCR, 48 h, active concentration of the compounds
# [3] = tested on: type 1 collagen (col1) mRNA; test: as above; type: cell-based; details: mRNA by qPCR, 48 h, active concentration of the compounds
# [4] = tested on: osteopenic mice; test: Osteopenic (OVX) mice model; type: in vivo, balb/c mice
# Experimental: 50 adult female balb/c mice (20±3 g, 10-12 months) underwent either sham surgery or ovariectomy (OVX). 6 weeks post-surgery, mice were scanned using μCT to ensure development of osteopenia. Treatments of 219/[…] (5 mg/kg), 219/[…] (1 mg/kg and 5 mg/kg), PTH (40 μg/kg) and vehicle (water) were given to OVX mice with osteopenia for another 6 weeks, and vehicle treatment was given to sham operated mice for the same duration (n=10/group). After 6 weeks all mice were sacrificed and bones were collected for further experiment. A high-resolution X-ray micro-computed tomographic (μCT) for two-dimensional (2D) and three-dimensional (3D) assessment of bones (excised bones) were carried out using a Sky Scan 1076 μCT scanner (SkyScan, Ltd, Kartuizersweg, Kontich, Belgium). Briefly, after scanning bone samples at a nominal resolution (pixels) of 9 μm, cross-sectional reconstruction was made using SkyScanNrecon software based on a modified Feldkamp algorithm. To analyze trabecular bone, region of interest was drawn on a total of 100 slices in the region of secondary spongiosa situated 1.5 mm away from the distal border of growth plate (GP) excluding primary spongiosa and cortical bone. Quantification was done by employing Batman software encumbered with trabecular (3D) and cortical (2D) bone programs. Using μCT scans, trabecular bone mineral density (BMD) of femurs was determined from the volume of interest made for cortical and trabecular region, respectively. […] Bone mechanical strength was examined by three-point bending of femur diaphysis with bone strength tester TK […] (Muromachi Kikai Co. Ltd, Tokyo, Japan).
# [5] = rat, in vivo, 250 mg/kg
# Experimental: LC-MS/MS-API 4000 (Q-TRAP) triple quadrupole (AB-SCIEX, Toronto, Canada). The mass spectrometer was operated using an electrospray atmospheric pressure ionization source in positive ion mode.
# a) Fingerprinting of 219/C002 Extract
# Primary stock: 1 mg/mL in DMSO
# Secondary stock: 50 ng/mL in Methanol
# Continuous injection at 10 μL/min from secondary stock.
# b) Fingerprinting of Blank Rat Plasma:
# Blood was collected from overnight fasted rats and plasma was seperated. Plasma was precipitated with methanol (1:5 v/v), vortexed and centrifuged. The supernatant was collected and diluted with methanol (1:10 v/v). Continuous injection at 10 μL/min
# c) Fingerprinting of 250 mg/kg (Oral) 219/C002 Treated Rat Plasma
# Overnight fasted rats were administered 250 mg/kg 219/C002 extract suspension orally. Blood was collected after 45 min and plasma was separated. Plasma was precipitated with methanol (1:5 v/v), vortexed and centrifuged. The supernatant was collected and diluted with methanol (1:10 v/v). Continuous injection into the column at 10 μL/min.
# The mass spectrometer [LC-MS/MS-API 4000 (Q-TRAP) triple quadrupole (AB-SCIEX, Toronto, Canada)] was used for the assay. Overnight fasted rats were administered 250 mg/kg extract suspension orally. Blood was collected after 45 min and plasma was separated. Plasma was precipitated with methanol, vortexed and centrifuged. The supernatant was collected and diluted with methanol. Continuous injection at 10 μL/min was done for extract, blank plasma and extract treated plasma.
# [6] = tested on: BMP2 mRNA; test: qPCR osteogenic gene expression in rat calvarial osteoblast; type: cell-based; details: mRNA by qPCR, 48 h, active concentration of the compounds
# [7] = tested on: MP treated animals (adult male SD rats); test: MP induced secondary osteoporosis model; type: in vivo, rat; details: MP 5 mg/Kg s.c. 1 month, MP alone or MP+219/C002 250 mg/kg, 219/F005 100 mg/kg, 219/F005-F 50 mg/kg
# Experimental: 50 adult male SD rats (260±20 g, 8-10 months) were divided into 5 groups. 5 mg/Kg methylprednisolone was administered subcutaneously for 1 month to induce osteoporosis. 219/C002 (250 mg/kg), 219/F005 (100 mg/Kg), 219/F005-F (50 mg/kg) treatment were given to check the efficacy of the extract and its different fraction along with methylprednisolone (n=10/group). After 1 month all rats were sacrificed and bones were collected for further experiment.
# A high-resolution X-ray micro-computed tomographic (μCT) for two-dimensional (2D) and three-dimensional (3D) assessment of bones (excised bones) were carried out using a Sky Scan 1076 μCT scanner (SkyScan, Ltd, Kartuizersweg, Kontich, Belgium). Briefly, after scanning bone samples at a nominal resolution (pixels) of 9 μm, cross-sectional reconstruction was made using SkyScanNrecon software based on a modified Feldkamp algorithm. To analyze trabecular bone, region of interest was drawn on a total of 100 slices in the region of secondary spongiosa situated 1.5 mm away from the distal border of growth plate (GP) excluding primary spongiosa and cortical bone. Quantification was done by employing Batman software encumbered with trabecular (3D) and cortical (2D) bone programs. Using μCT scans, trabecular bone mineral density (BMD) of femurs was determined from the volume of interest made for cortical and trabecular region, respectively. For calibration, hydroxyl apatite phantom rods of 4 mm of diameter with known BMD (0.25 g/cm^3 and 0.75 g/cm^3) were employed.
# Animals were kept in metabolic cages without food but with respective treatment and ad libitum water. Fasting serum samples were collected after 24 h. Serumprocollagen type I N-terminal propeptide (PINP) levels were determined by ELISA (MyBioSource, USA.), following the manufacturer's protocols.
# Bone mechanical strength was examined by three-point bending of femur diaphysis with bone strength tester TK 252C (Muromachi Kikai Co. Ltd, Tokyo, Japan).
SMILES,osteogenic concentration [1],RunX2 expression [2],Col1 expression [3],oral absorption: detection in plasma [5],other results
"O=c1cc(-c2ccc(O)cc2)oc2cc(O)cc(O)c12 [219/K007, Apigenin]",(1 μM),promoted,promoted,detected in extract and in extract-treated rat plasma but not in blank rat plasma,femur cortical strength (three-point bending) ([4]; 6 weeks treatment): partially improve cortical strength
"O=c1cc(-c2ccc(O)cc2)oc2cc(O)ccc12 [219/K009, 7,4′-dihydroxy flavone]",(10 nM),promoted,promoted,detected in extract and in extract-treated rat plasma but not in blank rat plasma,–
"O=c1cc(-c2ccc(O)c(O)c2)oc2cc(O)cc(O)c12 [219/K010, Luteolin]",(1 nM),–,–,–,–
"O=c1cc(-c2ccc(O)c(O)c2)oc2cc(O)ccc12 [219/K011, 7,3′,4′-trihydroxy-flavone]",(10 nM),promoted,promoted,–,BMP2 expression [6]: promoted BMP2 expression
"Cc1cc(O)c2c(c1)C(=O)c1cc(O)cc(O)c1C2=O [219/K012, Emodin]",(10 nM),–,–,–,–
"O=c1cc(-c2ccc(O)cc2)oc2cc(O)c([C@@H]3O[C@H](CO)[C@@H](O)[C@H](O)[C@H]3O)c(O)c12 [219/K017, Isovitexin]",(1 μM),promoted,promoted,detected in extract and in extract-treated rat plasma but not in blank rat plasma,"BMP2 expression [6]: promoted BMP2 expression; femur trabecular microarchitecture (BMD, BV/TV) ([4]; 5 mg/Kg, 6 weeks): completely restored femur trabecular microarchitecture; bone strength of femur, higher than with 219/K007 (apigenin) treatment ([4]; 6 weeks treatment): 80%; femur cortical strength (three-point bending) ([4]; 6 weeks treatment): restored femur cortical strength; total bone volume of femur, higher than with 219/K007 (apigenin) treatment ([4]; 6 weeks treatment): 72%"
"C[C@H]1C[C@@H]2[C@H]([C@@H](O)C[C@@]3(C)[C@H]2CC[C@]3(O)C(=O)CO)[C@@]2(C)C=CC(=O)C=C12 [MP, Methylprednisolone]",–,–,–,–,"BMD ([7]; mean, n=10): 0.281 gm-HA/cm^3; BV/TV ([7]; mean, n=10): 18.33%; Serum PINP ([7]; mean, n=10): 50.17 ng/mL; Energy ([7]; femur three-point bending): 75.67 mJ; Max power ([7]; femur three-point bending): 82.17 N; Stiffness ([7]; femur three-point bending): 108.17 N/mm"
O=C(O)c1ccccn1 [Picolonic acid],–,–,–,detected in extract and in extract-treated rat plasma but not in blank rat plasma,–
